Consider eleven compounds from patent US4197407A, “Prostenoic acids and esters” (American Cyanamid Company, priority 1977, dated 1980).

The test system of test [1] is mean arterial blood pressure. Put plainly: Hypotensive activity in anesthetized rats. It counts as in vivo, Male Wistar strain rats. To be noted: intravenous infusion over one minute. Here is the method: This procedure is a modification of the technique described by Pike, et al., Prostaglandins, Nobel Symposium 2, Stockholm, June, 1966, pg. 165.
Male Wistar strain rats (Royal Hart Farms) averaging approximately 250 g in weight are fastened to rat boards in a supine position by means of canvas vests and limb ties. The animals are anesthetized with a 900 mg/kg intraperitoneal dose of urethane. The left carotid artery is cannulated with polyethylene 50 tubing to measure arterial blood pressure and the left external jugular vein is cannulated with polyethylene 50 tubing for drug infusion. The animals are allowed to equilibrate for 15-30 minutes. The test compound is infused in 0.5 ml of saline, over a one minute period, at the indicated dose level, using a Harvard model 940 infusion pump and a 6 cc syringe at speed 5. Each drug dose is flushed with 0.4 ml of saline. The mean arterial blood pressure is measured before and after drug administration using a Statham model P23Db pressure transducer and a Brush model 260 recorder. The percent depression in mean arterial blood pressure and the duration of at least a 10% depression induced by representative compounds of this invention are recorded in Table C.

The subject of test [2] is collagen induced platelet aggregation. Kind of test: Inhibition of platelet aggregation in vitro, collagen induced. It counts as cell-based, Human. Details: key: (-): Inhibition; (+): No inhibition. The text has this: (§1) It is well known that platelet aggregation inhibitors may be useful as anti-thrombotic drugs. Inhibition of platelet aggregation can be conveniently measured in vitro by monitoring changes in optical density and/or light transmission in platelet rich plasma upon addition of suitable aggregating agents such as adenosine diphosphate, epinephrine, thrombin or collagen. Alternatively, platelet aggregation can be measured in vitro using platelet rich plasma obtained at various time intervales from animals given inhibitors by an oral or parenteral route.
(§2) Human […] is incubated with modified Tyrode's solution in a proportion of 40-50% human […]. The test compounds are added at varying concentrations and after 5 minutes incubation, an aggregating agent such as adenosine diphosphate or collagen is added. The change in optical density (light transmission) is monitored by eye and inhibition is recorded as a (-) or lack of inhibition is recorded as a (+). Test compounds are considered active if they inhibit adenosine diphosphate or collagen induced aggregation at a concentration of 25 mcg/ml or less within 5-10 minutes.

Test [3] has as its system adenosine diphosphate induced platelet aggregation. Put plainly: Inhibition of platelet aggregation in vitro, adenosine diphosphate induced. Further details: key: (-): Inhibition; (+): No inhibition. It counts as cell-based, Human.
Description: as §1, §2

Test [4] deals with respiratory depression produced by arachidonate. Put plainly: Inhibition of respiratory depression produced by arachidonate in mice, in vivo. To be noted: 2 hours before 50 mg/kg i.v. sodium arachidonate. Further details: species or system Swiss, male, albino mice. Here is the method:
Swiss, male, albino mice, weighing about 20 g, are placed in control and drug groups, each with 4-6 mice and fasted. The drug mice are dosed with 50, 25, 10, or 1 mg/kg of a test compound suspended in volumes of 0.5, 0.25, or 0.10 ml of 2% starch solution. Control animals receive starch solution alone. After 2 hours all the mice are challenged with an intravenous dose of 50 mg/kg of sodium arachidonate in a volume of 0.2 ml, by tail vein. The onset of effect and duration of respiratory depression and recovery or death is quantitated. The percent inhibition of respiratory depression is computed from the mean of the drug group and the mean of the control group. Compounds giving 30% or more inhibition at 25 mg/kg or less are considered active.

In test [5] the test system is bronchospasms elicited by acetylcholine. Put plainly: Bronchodilator activity (Konzett procedure) against acetylcholine. It counts as in vivo, guinea pigs. To be noted: Cavia porcellus; three logarithmic cumulative intravenous doses; spasmogen acetylcholine i.v. How it is done:
(§3) Bronchodilator activity is determined in guinea pigs against bronchospasms elicited by intravenous injections of 5-hydroxytryptamine, histamine or acetylcholine by the Konzett procedure. [See J. Lulling, P. Lievens, F. El Sayed and J. Prignot, Arzeneimittel-Forschung, 18, 995 (1968).] In Table D, bronchodilator activity for representative compounds of this invention against one or more of the three spasmogenic agents is expressed as an ED50 determined from the results obtained with three logarithmic cumulative intravenous doses.

For test [6], the system named is bronchospasms elicited by histamine. Put plainly: Bronchodilator activity (Konzett procedure) against histamine. Type of test: in vivo, guinea pigs. To be noted: Cavia porcellus; three logarithmic cumulative intravenous doses; spasmogen histamine i.v. Here is the method:
as §3

For test [7], the system named is bronchospasms elicited by 5-hydroxytryptamine. Kind of test: Bronchodilator activity (Konzett procedure) against 5-hydroxytryptamine. It counts as in vivo, guinea pigs. To be noted: Cavia porcellus; three logarithmic cumulative intravenous doses; spasmogen 5-hydroxytryptamine i.v. How it is done:
as §3

The term ED50 denotes the dose at which the effect has come halfway, by size or by number of responders.

Where only a bound is given, the exact number is not on record here.

Consider `CCCC[C@@H]1CCC[C@]1(O)/C=C/[C@H]1CCC(=O)[C@@H]1CCCCCCC(=O)OCC` (relative stereo) [Ethyl nat-15R,16R(and ent-15S,16S)-15-hydroxy-9-oxo-15,16-trimethylene-13-trans-prostenoate], for which, in test [1] (dose 4.0 mg/kg), the “Duration in Minutes of at Least 10% Depression” value was found to be 4 min and the “Percent Depression of Mean Arterial Blood Pressure” value (“Percent Depression” below) was -16%.

As for `CCCC[C@H]1CCC[C@@]1(O)/C=C/[C@H]1CCC(=O)[C@@H]1CCCCCCC(=O)OCC` (relative stereo) [Ethyl nat-15S,16S(and ent-15R,16R)-15-hydroxy-9-oxo-15,16-trimethylene-13-trans-prostenoate], in test [1] (dose 1.6 mg/kg), the “Duration in Minutes of at Least 10% Depression” value was found to be 5 min and the “Percent Depression” value is -43%.

`O=C(O)CCCCCC[C@H]1C(=O)CC[C@@H]1/C=C/C1=CCCCC1` (relative stereo) [nat(and ent)-9-oxo-15,16-Tetramethylene-17,18,19,20-tetranor-15,13-trans-prostadienoic Acid]: the “Inhibition of Platelet Aggregation - In Vitro, Collagen” value (“Inhibition … Collagen” for short) in test [2] (drug concentration 25 μg/ml) and in test [2] (drug concentration 250 μg/ml) was “(-)” throughout. The “Inhibition of Platelet Aggregation - In Vitro, Adenosine Diphosphate” value (“Inhibition … Adenosine Diphosphate” for short) in test [3] (drug concentration 25 μg/ml) and in test [3] (drug concentration 250 μg/ml) was “(-)” throughout. Moreover, the “Inhibition of Respiratory Depression - In Vivo, Percent Inhibition” value (from here on “Inhibition … Percent Inhibition”) in test [4] (25 mg/kg) is 28%.

Turning to `O=C(O)CCC/C=C\C[C@H]1C(=O)C[C@@H](O)[C@@H]1/C=C/C1(O)CCCCC1` (relative stereo) [nat(and ent)-11α,15-Dihydroxy-9-oxo-15,16-tetramethylene-17,18,19,20-tetranor-5-cis,13-trans-prostadienoic Acid], the “Inhibition … Collagen” value is on record as “(+)” in test [2] (drug concentration 0.25 μg/ml), “(-)” in test [2] (drug concentration 2.5 μg/ml), “(-)” in test [2] (drug concentration 25 μg/ml) and “(-)” in test [2] (drug concentration 250 μg/ml). Moreover, the “Inhibition … Adenosine Diphosphate” value was “(+)” in test [3] (drug concentration 0.25 μg/ml), “(-)” in test [3] (drug concentration 2.5 μg/ml), “(-)” in test [3] (drug concentration 25 μg/ml) and “(-)” in test [3] (drug concentration 250 μg/ml). For the same compound, in test [5], the median effective dose (ED50) turned out to be 0.115 µg/kg. In addition, the “Inhibition … Percent Inhibition” value in test [4] (10 mg/kg) turned out to be 6%; in test [4] (25 mg/kg) it was 14%. Also, the “Duration in Minutes of at Least 10% Depression” value in test [1] (dose 2.2 mg/kg) worked out at 23 min. The “Percent Depression” value in test [1] (dose 2.2 mg/kg) was -31%.

In the case of `O=C(O)CCCCCC[C@H]1C(=O)C[C@@H](O)[C@@H]1/C=C/C1(O)CCCCC1` (relative stereo) [nat(and ent)-11α,15-Dihydroxy-9-oxo-15,16-tetramethylene-17,18,19,20-tetranor-13-trans-prostenoic Acid], the “Inhibition … Collagen” value in test [2] (drug concentration 0.25 μg/ml) is “(+)”; in test [2] (drug concentration 2.5 μg/ml), “(-)”; in test [2] (drug concentration 25 μg/ml), “(-)”; in test [2] (drug concentration 250 μg/ml) it was “(-)”. Besides, the “Inhibition … Adenosine Diphosphate” value is “(+)” in test [3] (drug concentration 0.25 μg/ml), “(-)” in test [3] (drug concentration 2.5 μg/ml), “(-)” in test [3] (drug concentration 25 μg/ml) and “(-)” in test [3] (drug concentration 250 μg/ml). Further, the “Duration in Minutes of at Least 10% Depression” value in test [1] (dose 2.1 mg/kg) is 16 min. Besides, the “Percent Depression” value in test [1] (dose 2.1 mg/kg) is -39%.

As to `O=C(O)CCC/C=C\C[C@H]1C(=O)C=C[C@@H]1/C=C/C1(O)CCCCC1` (relative stereo) [nat(and ent)-15-Hydroxy-9-oxo-15,16-tetramethylene-17,18,19,20-tetranor-13-trans,5-cis,10-prostatrienoic acid], the “Inhibition … Collagen” value in test [2] (drug concentration 25 μg/ml) is “(+)”; in test [2] (drug concentration 250 μg/ml), “(-)”. Further, the ED50 in test [6] was 0.632 µg/kg; in test [5] it was above 3.2 µg/kg; in test [7], above 3.2 µg/kg. Moreover, the “Inhibition … Adenosine Diphosphate” value in test [3] (drug concentration 25 μg/ml) is recorded as “(+)”; in test [3] (drug concentration 250 μg/ml), “(-)”.

Take `O=C(O)CCCCCC[C@H]1C(=O)CC[C@@H]1/C=C/C1(O)CCCCC1` (relative stereo) [nat(and ent)-15-Hydroxy-9-oxo-15,16-tetramethylene-17,18,19,20-tetranor-13-trans-prostenoic Acid]: the “Inhibition … Collagen” value in test [2] (drug concentration 0.25 μg/ml) is “(+)”; in test [2] (drug concentration 2.5 μg/ml), “(+)”; in test [2] (drug concentration 25 μg/ml), “(-)”; in test [2] (drug concentration 250 μg/ml), “(-)”. In addition, the “Inhibition … Adenosine Diphosphate” value in test [3] (drug concentration 0.25 μg/ml) is given as “(+)”; in test [3] (drug concentration 2.5 μg/ml) it was “(+)”; in test [3] (drug concentration 25 μg/ml) it was “(-)”; in test [3] (drug concentration 250 μg/ml), “(-)”. Besides, the “Inhibition … Percent Inhibition” value in test [4] (1 mg/kg) was determined as 33%. The “Duration in Minutes of at Least 10% Depression” value in test [1] (dose 1.8 mg/kg) amounted to 4 min. Besides, the “Percent Depression” value in test [1] (dose 1.8 mg/kg) is listed as -9%.

With `CCCC[C@H]1CCC[C@@]1(O)/C=C/[C@H]1CCC(=O)[C@@H]1CCCCCCC(=O)O` (relative stereo) [nat-15S,16S(and ent-15R,16R)-15-Hydroxy-9-oxo-15,16-trimethylene-13-trans-prosenoic Acid], the figures for the ED50 in test [5] and in test [7] were 0.413 µg/kg and 0.112 µg/kg, respectively.

As to `CCCCC1CCCC1(O)/C=C/C1CCC(=O)C1CCCCCCC(=O)OCC` [Ethyl nat-15S,16R(and ent-15R,16S)-15-hydroxy-9-oxo-15,16-trimethylene-13-trans-prostenoate and Ethyl nat-15R,16S(and ent-15S,16R)-15-hydroxy-9-oxo-15,16-trimethylene-13-trans-prostenoate], in test [1] (dose 1.9 mg/kg), the “Duration in Minutes of at Least 10% Depression” value is 7 min and the “Percent Depression” value is recorded as -18%.

The compound `CCCCC1CCCC1(O)/C=C/C1CCC(=O)C1CCCCCCC(=O)O` [nat-15S,16R(and ent-15R,16S) and nat-15R,16S(and ent-15S,16R)-15-Hydroxy-9-oxo-15,16-trimethylene-13-trans-prostenoic Acid] displayed an ED50 in test [7] of 0.32 µg/kg. In addition, in test [1] (dose 2.0 mg/kg), the “Duration in Minutes of at Least 10% Depression” value worked out at 4 min and the “Percent Depression” value is given as -38%.

On to `CCCCC1CCCC1(O)/C=C/C1C(O)CC(=O)C1C/C=C\CCCC(=O)O` [nat-15S,16R(and ent-15R,16S) and nat-15R,16S-(and ent-15S,16R)-11α,15-Dihydroxy-9-oxo-15,16-trimethylene-13-trans-5-cis-prostadienoic Acid], for which, in test [2] (drug concentration 250 μg/ml), the “Inhibition … Collagen” value is listed as “(+)”. In addition, the figures for the “Inhibition … Adenosine Diphosphate” value in test [3] (drug concentration 25 μg/ml) and in test [3] (drug concentration 250 μg/ml) were “(+)” and “(-)”, respectively. The “Duration in Minutes of at Least 10% Depression” value in test [1] (dose 1.7 mg/kg) was above 10 min. In addition, the “Percent Depression” value in test [1] (dose 1.7 mg/kg) is listed as -47%.
